Measurements reported in US20240173329A1, “BELVARAFENIB FOR USE IN TREATMENT OF BRAIN CANCERS” (Genentech, Inc., priority 2021, published 2024).

Assays:
[1] = target: T1, discoidin domain receptor tyrosine kinase 2 (DDR2) (Homo sapiens, UniProt Q16832); test: panel of 189 kinase assays; format: biochemical
T1 sequence (Q16832 22-855): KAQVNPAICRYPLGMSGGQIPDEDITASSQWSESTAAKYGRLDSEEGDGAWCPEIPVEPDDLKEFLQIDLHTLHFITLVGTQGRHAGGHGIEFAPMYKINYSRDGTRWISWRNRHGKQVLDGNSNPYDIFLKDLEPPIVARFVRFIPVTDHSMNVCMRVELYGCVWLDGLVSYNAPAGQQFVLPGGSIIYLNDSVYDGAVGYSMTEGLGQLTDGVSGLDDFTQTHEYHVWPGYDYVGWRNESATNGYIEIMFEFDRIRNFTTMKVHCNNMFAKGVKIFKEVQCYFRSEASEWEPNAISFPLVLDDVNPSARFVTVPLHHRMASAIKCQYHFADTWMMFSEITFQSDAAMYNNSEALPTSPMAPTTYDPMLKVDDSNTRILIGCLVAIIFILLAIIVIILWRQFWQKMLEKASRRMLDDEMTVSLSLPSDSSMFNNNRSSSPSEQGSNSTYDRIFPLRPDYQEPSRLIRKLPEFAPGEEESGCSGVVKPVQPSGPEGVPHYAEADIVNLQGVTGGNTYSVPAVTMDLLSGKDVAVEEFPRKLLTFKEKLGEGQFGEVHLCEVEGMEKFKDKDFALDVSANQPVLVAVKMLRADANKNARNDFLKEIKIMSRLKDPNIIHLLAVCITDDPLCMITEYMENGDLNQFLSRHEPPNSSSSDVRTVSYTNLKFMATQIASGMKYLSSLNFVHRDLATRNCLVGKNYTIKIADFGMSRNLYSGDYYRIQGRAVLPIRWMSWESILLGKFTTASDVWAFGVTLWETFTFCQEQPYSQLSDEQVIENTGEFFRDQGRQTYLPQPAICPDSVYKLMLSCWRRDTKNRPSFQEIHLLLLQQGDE

[2] = Phase I relative bioavailability and food effect study in healthy subjects; format: in vivo; details: 200 mg single dose
Experimental: In another Phase I, single dose, randomized, crossover relative bioavailability and food effect study in healthy subjects, the influence of a formulation change from the Phase I to Phase II tablet on belvarafenib exposure was evaluated. A total of 18 healthy subjects were enrolled in the study and received the following randomized treatments: one 150-mg and one 50-mg Phase I tablet in a fed state, two 100-mg Phase II tablets in a fed state, or two 100-mg Phase II tablets in a fasted state, with an 18-day washout between treatments. There was a positive effect of food on belvarafenib exposure in the fed state compared to the fasted state.

[3] = system: A375SM-Luc cells harboring the BRAF^V600 mutation; test: A375SM_Luc cell brain metastasis mouse model; format: in vivo; details: for mOS (median overall survival): vehicle 24.5 days; for day from which clinical signs of debility due to tumor growth occurred: vehicle after day 11
Experimental: The mouse strain was BALB/c Nude (nu/nu) produced and supplied by Orient Bio Inc., Korea.
The mice were kept in conventional animal lab cages for at least one week for acclimation before the start of the experiment. The cages were polysulfone 1291H (W425×D266×H185 mm, Techniplast, Italy). Eight mice were housed in each cage at a temperature of 22±2° C., a relative humidity of 50±20%, a ventilation frequency of 10-15 times/h, a 12 hour light/dark cycle, a light intensity of 150-300 Lux, at least weekly cage replacement. The mice were fed ad libitum Picolab Rodent diet (5053, Lab Diet, USA). Tap water was given ad libitum following UV irradiation and filtration.
The cancer cell line was A375SM-Luc harboring the BRAF^V600 mutation. That cell line was deemed suitable for the efficacy study of RAF inhibitors against BRAF^V600 in melanoma.
The A375SM-Luc cell line was established as follows. A375SM cells were seeded into 24 well clear flat-bottomed plates with 2.5×10^5 cells/well in MEM medium (Gibco, USA) supplemented with 10% FBS (Gibco, USA). The next day, CMV-Firefly luciferase lentivirus (Cellomics Inc., USA) was diluted in complete medium containing 8 μg/mL polybrene (Sigma Aldrich, St. Louis MO, USA). Cells were centrifuged in the prepared medium for 90 minutes at 800×g, followed by incubation in fresh medium for 2 to 3 days. Stable clones were selected using puromycin, and individual clones were screened for luciferase activity be measuring their light emission with the IVIS® Lumina Series III In Vivo Imaging System (PerkinElmer Inc., USA) after adding 10 μL (15 mg/mL) D-Luciferin (Gold Biotechnology, USA). The in vitro media was MEM 10% FBS. The in vitro culture condition was incubation at 5% CO2 at 37° C.
The in vivo cell inoculation was as follows. Mice were anesthetized by intraperitoneal (i.p.) injection of 30 mg/kg Zoletil 50 (Virbac, France) and 10 mg/kg Rompun (Bayer Korea, Korea). Five thousand cells suspended in 10 μL phosphate buffered saline were intracranially injected into the right frontal hemisphere (AP+2.0, ML−1.0, DV+2.0 from the bregma) using a stereotactic fixation device (David Kopf Instruments, USA). Mouse models were produced over two days.
The mice were randomized by their tumor burden by BLI (8 mice per group) after 6-7 days from inoculation (implantation). The mice were then dosed with belvarafenib dihydrochloride, 99.6% purity, that was stored at room temperature. Dosing was based on active ingredient free base and was corrected for assay and water content. The dosing vehicle was DMSO (5%), cremophore EL (5%), and deionized water (90%). Belvarafenib for dosing was dissolved in the vehicle.
Belvarafenib (in groups 2 and 3) and vehicle (in group 1) were dosed at 10 mL/kg (p.o.) once per day (QD) for a duration of 102 days.
Body weight measurement was performed twice a week during the dosing period. Relative body weight (%) was calculated by: body weight Day X (g)/initial body weight (g)×100 (Day X=body weight measurement day). Tumor burden was measured by bioluminescence imaging (BLI) using a IVIS® Lumina Series III In Vivo Imaging System (PerkinElmer Inc., USA) each week. […] Kaplan-Meier survival curves showing prolonged survival of mice of groups 1 to 3 were plotted from the date of drug administration. The median overall survival rate (mOS) was the amount of time after which 50% of the mice had died and 50% had survived.
The data were expressed as means±standard error of the mean (SEM). Statistical analysis was conducted by GraphPad PRISM® Version 6 (GraphPad Software, USA). […] was conducted to evaluate significant differences between the groups. A p value less than 0.05 was considered statistically significant.
Mice were intraperitoneally injected with 15 mg/mL of D-Luciferin on each of days 1, 5, 12, 19, 26, 33, 40, 47, 54, 61, 68, 75, 82, 89, 96, and 103 and evaluated with BLI imaging with an IVIS® Lumina Series III In Vivo Image System (PerkinElmer Inc., USA).

**Q.** With `Cc1ccc2c(Nc3cccc(Cl)c3F)nccc2c1NC(=O)c1csc2c(N)ncnc12` [Belvarafenib, 4-amino-N-(1-((3-chloro-2-fluorophenyl)amino)-6-methylisoquinolin-5-yl)thieno[3,2-d]pyrimidine-7-carboxamide] as the molecule, how does the inhibition at 1 µM [1] read?
**A.** > 90%

**Q.** What about the “AUC0-inf increase, fed state compared to fasted state” value [2] of the same molecule?
**A.** ~2.8 fold

**Q.** And the “Cmax increase, fed state compared to fasted state” value [2]?
**A.** approximately 2.2 fold

**Q.** And the adverse events [2]?
**A.** No serious adverse events, adverse events of special interest, or deaths were reported

**Q.** And the “tumor burden by bioluminescence imaging (BLI)” value ([3]; 5 mg/kg p.o. QD)?
**A.** more effective tumor inhibition than the vehicle

**Q.** And the Maximum weight loss ([3]; 5 mg/kg p.o. QD, day 39)?
**A.** 33.0 (day 39) %

**Q.** And the “mOS (median overall survival)” value ([3]; 5 mg/kg p.o. QD)?
**A.** 34.5 days

**Q.** And the “tumor burden by bioluminescence imaging (BLI)” value ([3]; 15 mg/kg p.o. QD)?
**A.** markedly delayed tumor growth as compared to the vehicle

**Q.** What about the “mOS (median overall survival)” value ([3]; 15 mg/kg p.o. QD) of the same molecule?
**A.** 70.0 days

**Q.** And the “day from which clinical signs of debility due to tumor growth occurred” value ([3]; group 2 (5 mg/kg))?
**A.** 14 days

**Q.** What about the “day from which clinical signs of debility due to tumor growth occurred” value ([3]; group 3 (15 mg/kg)) of the same molecule?
**A.** 16 days

**Q.** What about the “day of administration from which hair growth showed” value ([3]; groups 2 and 3 (5 and 15 mg/kg)) of the same molecule?
**A.** 7 days
